TGI data for 18 molecules are collected here from PubChem BioAssay (NCI).

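Cultured in 96-well plates, cells were exposed to test compound for 48 hours across five concentrations. TGI: concentration producing complete growth inhibition.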 Where a SMILES comes first, the peptide text is derived from it. The star is where a group is joined. Boc = CC(C)(C)OC(=O)*

Among the test systems are NCI-H460 lung; NCI-H522 lung; NCI/ADR-RES ovarian; RPMI-8226 leukemia; SK-MEL-28 melanoma; DLD-1 colon; DMS 273 small cell lung; HOP-18 NSCLC; KM20L2 colon; LXFL 529 NSCLC; M19-MEL melanoma; SNB-78 CNS; XF 498 CNS; DMS 114 small cell lung.
Common to all, as to test: inhibition of tumour cell growth, NCI panel, 48 h

Regarding `O=c1cc(-c2ccccc2)[nH]c2cc(F)c(F)cc12`, the TGI in the assay with NCI-H460 lung was over 100 µM; in the assay with NCI-H522 lung, 10.8 µM; with NCI/ADR-RES ovarian, over 19.6 µM; with RPMI-8226 leukemia, over 100 µM; in the assay with SK-MEL-28 melanoma it was over 100 µM.
On to `CC(=N/NC(=S)N1CCCCC1)/C(=N\NC(=S)N1CCCCC1)c1ccccc1`, for which the TGI was 4.48 µM with NCI-H460 lung; 4.18 µM in the assay with NCI-H522 lung; 6.43 µM in the assay on NCI/ADR-RES ovarian; over 100 µM in the assay on RPMI-8226 leukemia; 3.94 µM in the assay with SK-MEL-28 melanoma.
Regarding `CCN1CCC(O)(c2ccc(C)cc2)C(C(=O)c2ccc(C)cc2)C1` (stereo not drawn), the TGI in the assay with DLD-1 colon is 33.4 µM; in the assay with DMS 273 small cell lung it was 34.7 µM; in the assay with HOP-18 NSCLC, 36.9 µM; with KM20L2 colon, 17.7 µM; with LXFL 529 NSCLC, 31.3 µM; in the assay on M19-MEL melanoma, over 61.2 µM. Also, the TGI is over 81.1 µM in the assay on NCI-H460 lung; 3.44 µM with NCI-H522 lung; 41.5 µM in the assay with RPMI-8226 leukemia; 56 µM in the assay with SK-MEL-28 melanoma; over 76.8 µM in the assay with SNB-78 CNS; 33.1 µM with XF 498 CNS.
Consider `COC(=O)/C=C/c1ccc2c(c1)CCC2`, for which the TGI with NCI-H460 lung, in the assay with NCI-H522 lung, with NCI/ADR-RES ovarian, in the assay on RPMI-8226 leukemia and in the assay with SK-MEL-28 melanoma was over 100 µM each time.
As to `Cc1nc2c(n1CCO)C(=O)c1ccccc1C2=O`, the TGI with DLD-1 colon was over 100 µM; in the assay on DMS 273 small cell lung, 70.2 µM; in the assay on KM20L2 colon, over 100 µM; in the assay with LXFL 529 NSCLC, over 100 µM; in the assay with M19-MEL melanoma it was 6.6 µM; in the assay on NCI-H460 lung, over 100 µM. Also, the TGI with NCI-H522 lung is 27.6 µM; in the assay with SK-MEL-28 melanoma, over 100 µM; with SNB-78 CNS, over 100 µM; in the assay with XF 498 CNS it was 92.9 µM.
For `O=C1/C(=C/C=C/c2ccccc2)N=C(c2ccccc2)N1C1Nc2cc3c(cc2S1)NC(N1C(=O)/C(=C/C=C/c2ccccc2)N=C1c1ccccc1)S3` (stereo not drawn), the TGI with NCI-H460 lung was over 100 µM; with NCI-H522 lung, 28.8 µM; in the assay with NCI/ADR-RES ovarian it was over 100 µM; with RPMI-8226 leukemia it was 57 µM; in the assay with SK-MEL-28 melanoma, over 100 µM.
`CC1Cc2c(Br)nc(N)nc2NC1=O` (stereo not drawn): the TGI with NCI-H460 lung, in the assay with NCI-H522 lung, in the assay with NCI/ADR-RES ovarian, in the assay with RPMI-8226 leukemia and in the assay on SK-MEL-28 melanoma was over 100 µM each time.
For `CN(NC(=O)c1ccco1)C1=NCCN1`, the TGI with NCI-H460 lung, with NCI-H522 lung, in the assay with NCI/ADR-RES ovarian, in the assay on RPMI-8226 leukemia and with SK-MEL-28 melanoma was over 100 µM each time.
On to `COc1cc(C2c3cc4c(cc3OC(NC3CCCCC3)C2C)OCO4)cc(OC)c1OC` (stereo not drawn), for which the TGI was over 100 µM in the assay on NCI-H460 lung; 2.28 µM with NCI-H522 lung; 3.86 µM with NCI/ADR-RES ovarian; 41.8 µM with RPMI-8226 leukemia; over 100 µM in the assay with SK-MEL-28 melanoma.
As for `Cn1c2ccccc2c2c(-c3ccccc3)[n+]3ccccc3nc21`, the TGI is 59.6 µM in the assay with NCI-H460 lung; 69.7 µM in the assay on NCI-H522 lung; over 100 µM in the assay with NCI/ADR-RES ovarian; 40.8 µM with RPMI-8226 leukemia; 46.7 µM in the assay with SK-MEL-28 melanoma.
Turning to `CNC(=O)CN(CC(=O)NC)C(=O)NC`, the TGI in the assay with DLD-1 colon, with DMS 273 small cell lung, with KM20L2 colon, in the assay with LXFL 529 NSCLC, with M19-MEL melanoma and in the assay with NCI-H522 lung was over 100 µM each time. For the same molecule, the TGI in the assay with RPMI-8226 leukemia, in the assay on SK-MEL-28 melanoma, in the assay on SNB-78 CNS and in the assay on XF 498 CNS was over 100 µM in each case.
In the case of `O=C(Nc1cc(C(=O)Nc2cccc(S(=O)(=O)O)c2)cc(C(=O)Nc2cccc(S(=O)(=O)O)c2)c1)c1cccc(C(=O)Nc2cc(C(=O)Nc3cccc(S(=O)(=O)O)c3)cc(C(=O)Nc3cccc(S(=O)(=O)O)c3)c2)c1`, the TGI in the assay with NCI-H460 lung, in the assay on NCI-H522 lung, with NCI/ADR-RES ovarian, with RPMI-8226 leukemia and with SK-MEL-28 melanoma was over 100 µM in each case.
For the molecule `CCCCON1C[C@@H](O)C(O)[C@@H](O)C1` (stereo partly drawn), the TGI in the assay with NCI-H460 lung, with NCI-H522 lung, in the assay with NCI/ADR-RES ovarian, in the assay on RPMI-8226 leukemia and in the assay with SK-MEL-28 melanoma was over 100 µM in each case.
Consider `CC(NC(=O)C(NC(=O)OC(C)(C)C)C(C)C)C(=O)N1CCCC1C(=O)NCC(=O)NC(C(=O)NCC(=O)O)C(C)C` (stereo not drawn) (Boc-VAPGVG-OH; configuration not given here), for which the TGI in the assay with NCI-H460 lung, with NCI-H522 lung, in the assay with NCI/ADR-RES ovarian, in the assay with RPMI-8226 leukemia and in the assay with SK-MEL-28 melanoma was over 100 µM each time.
On to `COc1cc2cc(C(=O)N3CC(CCl)c4c3cc([N+](=O)[O-])c3ccccc43)[nH]c2c(OC)c1OC` (stereo not drawn), for which the TGI was over 63.8 µM in the assay on NCI-H460 lung; over 100 µM in the assay on NCI-H522 lung; over 78.3 µM in the assay on NCI/ADR-RES ovarian; over 100 µM with RPMI-8226 leukemia; over 100 µM in the assay with SK-MEL-28 melanoma.
Regarding `OC12c3ccccc3C1(N1CCOCC1)CCCCC21OCCCO1` (stereo not drawn), the TGI with DLD-1 colon, in the assay with DMS 114 small cell lung, with DMS 273 small cell lung, with HOP-18 NSCLC, with KM20L2 colon and in the assay on LXFL 529 NSCLC was over 100 µM each time. In addition, the TGI in the assay with NCI-H460 lung, with NCI-H522 lung, in the assay on RPMI-8226 leukemia, in the assay with SK-MEL-28 melanoma and with SNB-78 CNS was over 100 µM in each case.
With `COC(=O)CCCN(C)c1n[nH]c(N)n1`, the TGI in the assay with DLD-1 colon, with DMS 114 small cell lung, in the assay with DMS 273 small cell lung, with KM20L2 colon, with LXFL 529 NSCLC and with M19-MEL melanoma was over 100 µM throughout. For the same molecule, the TGI in the assay on NCI-H460 lung, with RPMI-8226 leukemia, with SK-MEL-28 melanoma and in the assay on SNB-78 CNS was over 100 µM throughout.
`O=C(/C=C(\O)c1ccc(Cl)cc1)C(=O)N=Nc1c(O)[nH]c2ccc(Br)cc12`: the TGI was over 100 µM in the assay with NCI-H460 lung; over 100 µM in the assay with NCI-H522 lung; over 100 µM in the assay on NCI/ADR-RES ovarian; 92.3 µM in the assay with RPMI-8226 leukemia; over 100 µM in the assay on SK-MEL-28 melanoma.
